In ChEMBL document CHEMBL4831555, “Identification and Validation of New Interleukin-2 Ligands Using DNA-Encoded Libraries” (J Med Chem, 2021):
pIC50, pKd: −log10 of the molar value. Active and inactive are the calls of the source. No cut-off for these calls is given here.

How the values were obtained:
Interleukin-2 [1] = target: T1, Interleukin-2 (Homo sapiens, UniProt P60568); assay: Binding affinity to L19-IL2 (unknown origin) by fluorescence polarization assay
Albumin = Albumin (Homo sapiens, UniProt P02768); assay: Binding affinity to human serum albumin by fluorescence polarization assay
Tumor necrosis factor = Tumor necrosis factor (Homo sapiens, UniProt P01375); assay: Binding affinity to TNF (unknown origin)
[2] = Inhibition of IL2/IL-2Ralpha (unknown origin) interaction; set-up: species or system Homo sapiens
[3] = Binding affinity to AGP (unknown origin) by fluorescence polarization assay; set-up: species or system Homo sapiens
Interleukin-2 [4] = target: T1, Interleukin-2; assay: Binding affinity to IL2 (unknown origin) by SPR assay
[5] = target: Interleukin-15 (Homo sapiens) (UniProt P40933); assay: Binding affinity to IL-15 (unknown origin)
Interleukin-2 [6] = target: T1, Interleukin-2; assay: Binding affinity to IL2 (unknown origin) preincubated for 15 mins followed by NARA1 addition and measured after 1 hr in presence of NARA1 by ELISA

T1 sequence (P60568 whole entry): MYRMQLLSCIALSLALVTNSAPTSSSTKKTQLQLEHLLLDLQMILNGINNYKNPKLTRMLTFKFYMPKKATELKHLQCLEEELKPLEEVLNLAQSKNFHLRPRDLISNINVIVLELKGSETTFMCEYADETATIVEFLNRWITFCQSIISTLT
Chain of Albumin (P02768 whole entry): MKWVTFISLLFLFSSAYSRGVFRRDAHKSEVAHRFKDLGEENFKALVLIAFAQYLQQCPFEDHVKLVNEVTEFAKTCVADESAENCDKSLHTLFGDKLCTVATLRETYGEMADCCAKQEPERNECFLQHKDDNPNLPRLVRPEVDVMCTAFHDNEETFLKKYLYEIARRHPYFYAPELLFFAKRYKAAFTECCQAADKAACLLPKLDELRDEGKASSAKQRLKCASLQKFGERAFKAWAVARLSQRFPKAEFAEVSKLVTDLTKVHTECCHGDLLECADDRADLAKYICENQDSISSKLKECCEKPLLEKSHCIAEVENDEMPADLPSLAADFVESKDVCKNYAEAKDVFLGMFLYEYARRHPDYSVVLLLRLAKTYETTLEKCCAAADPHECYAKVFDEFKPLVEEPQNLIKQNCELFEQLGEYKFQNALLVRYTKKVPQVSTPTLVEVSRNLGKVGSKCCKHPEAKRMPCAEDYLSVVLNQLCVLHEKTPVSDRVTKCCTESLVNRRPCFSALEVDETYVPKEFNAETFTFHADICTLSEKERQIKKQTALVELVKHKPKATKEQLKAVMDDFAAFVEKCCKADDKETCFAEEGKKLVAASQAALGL
Chain of Tumor necrosis factor (P01375 whole entry): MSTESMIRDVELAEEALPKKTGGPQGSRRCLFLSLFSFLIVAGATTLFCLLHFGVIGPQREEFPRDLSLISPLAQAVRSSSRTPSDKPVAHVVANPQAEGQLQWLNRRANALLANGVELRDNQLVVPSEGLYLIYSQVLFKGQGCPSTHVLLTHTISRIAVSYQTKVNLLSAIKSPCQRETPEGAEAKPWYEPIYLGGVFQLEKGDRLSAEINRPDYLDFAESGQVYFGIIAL
Chain of Interleukin-15 (Homo sapiens) (P40933 whole entry): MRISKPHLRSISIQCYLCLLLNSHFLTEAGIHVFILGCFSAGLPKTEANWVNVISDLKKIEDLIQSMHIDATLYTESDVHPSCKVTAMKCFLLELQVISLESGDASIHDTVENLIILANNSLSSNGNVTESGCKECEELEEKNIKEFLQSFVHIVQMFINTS

Structure (SMILES) | pKd (Interleukin-2 [1]) | pKd (Albumin) | further results
COc1ccc(C[C@H](NC(=O)c2cc3c(F)cccc3[nH]2)C(=O)O)cc1 | 5.89 | 6.37 | –
O=C(N[C@@H](Cc1ccc(O)c([N+](=O)[O-])c1)C(=O)O)c1cc2c(F)cccc2[nH]1 | 6.14 | 6.51 | –
O=C(N[C@@H](Cc1ccc(O)c(F)c1)C(=O)O)c1cc2c(F)cccc2[nH]1 | 6.04 | 5.77 | –
CC(C)C[C@@H](NC(=N)N)C(=O)NCC(=O)N1CCC(c2cc(-c3ccc(OCc4ccc(C(=O)O)o4)c(Cl)c3Cl)nn2C)CC1 | – | – | pIC50 [2]: 7.22
O=C(N[C@@H](Cc1ccc2ccccc2c1)C(=O)O)c1cc2c(F)cccc2[nH]1 | 6.12 | 7.52 | –
O=C(N[C@@H](Cc1ccc(O)c(I)c1)C(=O)O)c1cc2c(F)cccc2o1 | 5.66 | 6.00 | –
N=C(N)NCCC[C@@H](NC(=O)[C@H](Cc1ccc(O)c(I)c1)NC(=O)c1cc2c(F)cccc2[nH]1)C(=O)O | 6.06 | 5.02 | pKd [3]: 5.52
N=C(N)NCCC[C@H](NC(=O)[C@@H](Cc1ccc(O)c(I)c1)NC(=O)c1cc2c(F)cccc2[nH]1)C(=O)O | 5.92 | 5.48 | pKd [3]: < 5.00
O=C(N[C@@H](Cc1ccc(O)cc1)C(=O)O)c1cc2c(F)cccc2[nH]1 | 5.85 | 5.82 | –
COC(=O)[C@H](Cc1ccc(C#Cc2ccccc2)cc1)NC(=O)C[C@@H]1CCCN(C(=N)N)C1 | 5.82 | 5.40 | pIC50 [2]: 5.52; pKd [3]: 5.31; pKd (Interleukin-2 [4]): 4.66

Further compounds by rising pKd (Interleukin-2 [1]), results first:

pKd (Interleukin-2 [1]) | pKd (Albumin) | Structure (SMILES) | further results
6.15 | 5.14 | N=C(N)NCCC[C@@H](NC(=O)[C@@H](Cc1ccc(O)c(I)c1)NC(=O)c1cc2c(F)cccc2[nH]1)C(=O)O | pKd [3]: 5.40
6.19 | 7.15 | O=C(N[C@@H](Cc1ccc(I)cc1)C(=O)O)c1cc2c(F)cccc2[nH]1 | –
6.23 | 6.24 | O=C(N[C@@H](Cc1ccc(O)c(Cl)c1)C(=O)O)c1cc2c(F)cccc2[nH]1 | –
6.29 | 6.09 | O=C(N[C@@H](Cc1ccc(O)c(I)c1)C(=O)O)c1c[nH]c2cccc(F)c12 | –
6.38 | 6.41 | O=C(N[C@@H](Cc1ccc(O)c(I)c1)C(=O)O)c1cc2ccccc2[nH]1 | –
6.41 | 6.68 | O=C(N[C@@H](Cc1ccc(O)c(I)c1)C(=O)O)c1cc2cccc(F)c2[nH]1 | –
6.47 | 5.70 | N=C(N)NCCC[C@H](NC(=O)[C@H](Cc1ccc(O)c(I)c1)NC(=O)c1cc2c(F)cccc2[nH]1)C(=O)O | pKd [3]: 5.47; pKd (Tumor necrosis factor): 5.36; Activity [5]: inactive; pIC50 (Interleukin-2 [6]): 5.47
6.48 | 6.57 | O=C(N[C@@H](Cc1ccc(O)c(I)c1)C(=O)O)c1cc2cc(F)ccc2[nH]1 | –
6.52 | 6.11 | O=C(N[C@@H](Cc1ccc(O)c(Br)c1)C(=O)O)c1cc2c(F)cccc2[nH]1 | –
6.55 | 6.77 | O=C(N[C@@H](Cc1ccc(O)c(I)c1)C(=O)O)c1cc2ccc(F)cc2[nH]1 | –
6.60 | 7.70 | O=C(N[C@@H](Cc1cccc(I)c1)C(=O)O)c1cc2c(F)cccc2[nH]1 | –
6.60 | 6.54 | O=C(N[C@@H](Cc1ccc(O)c(I)c1)C(=O)O)c1cc2c(F)cccc2[nH]1 | pKd (Tumor necrosis factor): 5.29
6.68 | 6.66 | O=C(N[C@H](Cc1ccc(O)c(I)c1)C(=O)O)c1cc2c(F)cccc2[nH]1 | –
